Source: ChEMBL document CHEMBL4680139, “Antiproliferative activity of diarylnaphthylpyrrolidine derivative via dual target inhibition” (Eur J Med Chem, 2020)
≈ marks a conversion by molar mass, not a printed value.

Columns and labels:
MCF7 [1] = assay: Induction of apoptosis in human MCF-7 cells assessed as proportion of early apoptotic cells at 8.66 uM measured after 24 hrs by Annexin V- FITC/propidium iodide staining based flow cytometry (reference value: 0%); format: functional
[2] = Toxicity in Swiss albino mouse assessed as RBC level in blood at 5 mg/kg, po administered as single dose (reference value: 10.56 +/- 1.22x10^6/mm3); format: organism-based; details: in vivo
[3] = molecular target: DNA topoisomerase 2-alpha (Homo sapiens) (UniProt P11388); assay: Inhibition of DNA-topoisomerase 2 in human MCF7 cells using kinetoplast DNA as substrate at 17.32 uM measured by ELISA; format: cell-based
MCF7 [4] = assay: Induction of cell cycle arrest in human MCF-7 cells assessed as accumulation at G2/M phase at 8.66 uM by propidium iodide staining based flow cytometry (reference value: 15.2%); format: functional
MCF7 [5] = assay: Antiproliferative activity against human MCF-7 cells assessed as inhibition of colony formation measured after 3 weeks by crystal violet staining based soft agar colony formation assay; format: functional, cell-based
MCF7 [6] = assay: Antiproliferative activity against human MCF-7 cells assessed as inhibition of cell growth measured after 48 hrs by SRB assay; format: functional, cell-based; details: MCF7, 48 h
MDA-MB-231 [7] = assay: Induction of cell cycle arrest in human MDA-MB-231 cells assessed as accumulation at S phase at 2.6 uM by propidium iodide staining based flow cytometry (reference value: 11.35 +/- 0.07%); format: functional
[8] = Toxicity in Swiss albino mouse assessed as total bilirubin level in serum at 300 mg/kg, po administered as single dose (reference value: 0.62 +/-0.05 mg/dl); format: organism-based; details: in vivo
[9] = Toxicity in Swiss albino mouse assessed as albumin level in serum at 5 mg/kg, po administered as single dose (reference value: 0.56 +/-0.02 g/dl); format: organism-based; details: in vivo
[10] = Toxicity in Swiss albino mouse assessed as absolute and relative lung weight at 5 to 300 mg/kg, po administered as single dose; format: organism-based; details: in vivo, dose 5-300 mg/kg
[11] = Inhibition of bovine brain tubulin polymerisation measured by turbidometric method; format: tissue-based, Bos taurus
[12] = Toxicity in Swiss albino mouse assessed as absolute and relative heart weight at 5 to 300 mg/kg, po administered as single dose; format: organism-based; details: in vivo, dose 5-300 mg/kg
MDA-MB-231 [13] = assay: Induction of cell cycle arrest in human MDA-MB-231 cells assessed as accumulation at G0/G1 phase at 5.21 uM by propidium iodide staining based flow cytometry (reference value: 77.7 +/- 0.28%); format: functional
[14] = Toxicity in Swiss albino mouse assessed as total bilirubin level in serum at 5 mg/kg, po administered as single dose (reference value: 0.62 +/-0.05 mg/dl); format: organism-based; details: in vivo
MDA-MB-231 [15] = assay: Induction of apoptosis in human MDA-MB-231 cells assessed as proportion of viable cells at 5.21 uM measured after 24 hrs by Annexin V-FITC/propidium iodide staining based flow cytometry (reference value: 99%); format: functional
MCF7 [16] = assay: Antiproliferative activity against human MCF-7 cells assessed as proportion of live cells at 6.25 ug/ml measured after 3 weeks by crystal violet staining based soft agar colony formation assay (reference value: 100%); format: functional; details: dose 6.25 µg/ml
[17] = Toxicity in Swiss albino mouse assessed as serum protein level at 300 mg/kg, po administered as single dose (reference value: 2.83 +/-0.09 mg/ml); format: organism-based; details: in vivo
MCF7 [18] = assay: Antiproliferative activity against human MCF-7 cells assessed as proportion of dead cells at 50 ug/ml measured after 3 weeks by crystal violet staining based soft agar colony formation assay; format: functional; details: dose 50 µg/ml
MDA-MB-231 [19] = assay: Induction of apoptosis in human MDA-MB-231 cells assessed as proportion of viable cells at 2.6 uM measured after 24 hrs by Annexin V-FITC/propidium iodide staining based flow cytometry (reference value: 99%); format: functional
[20] = Toxicity in Swiss albino mouse assessed as RBC level in blood at 300 mg/kg, po administered as single dose (reference value: 10.56 +/- 1.22x10^6/mm3); format: organism-based; details: in vivo
[21] = Toxicity in Swiss albino mouse assessed as body weight at 5 mg/kg, po administered as single dose (reference value: 31.62 +/- 1.64 gms); format: organism-based; details: in vivo
MCF7 [22] = assay: Induction of cell cycle arrest in human MCF-7 cells assessed as accumulation at G0/G1 phase at 4.33 uM by propidium iodide staining based flow cytometry (reference value: 74.5%); format: functional
[23] = Toxicity in Swiss albino mouse assessed as serum protein level at 5 mg/kg, po administered as single dose (reference value: 2.83 +/-0.09 mg/ml); format: organism-based; details: in vivo
MDA-MB-231 [24] = assay: Induction of cell cycle arrest in human MDA-MB-231 cells assessed as accumulation at G0/G1 phase at 10.42 uM by propidium iodide staining based flow cytometry (reference value: 77.7 +/- 0.28%); format: functional
[25] = Toxicity in Swiss albino mouse assessed as absolute and relative kidney weight at 5 to 300 mg/kg, po administered as single dose; format: organism-based; details: in vivo, dose 5-300 mg/kg
MCF7 [26] = assay: Induction of cell cycle arrest in human MCF-7 cells assessed as accumulation at S phase at 2.17 uM by propidium iodide staining based flow cytometry (reference value: 6.9%); format: functional
[27] = Toxicity in Swiss albino mouse assessed as SGPT level in serum at 50 mg/kg, po administered as single dose (reference value: 21.81 +/-2.1 U/L); format: organism-based; details: in vivo
[28] = molecular target: DNA topoisomerase 2-alpha (Homo sapiens) (UniProt P11388); assay: Inhibition of DNA-topoisomerase 2 in human MCF7 cells using kinetoplast DNA as substrate at 8.66 uM measured by ELISA; format: cell-based
[29] = Toxicity in po dosed Swiss albino mouse administered as single dose; format: organism-based; details: in vivo
[30] = Toxicity in Swiss albino mouse assessed as ALP level in serum at 50 mg/kg, po administered as single dose (reference value: 195.8 +/-12.06 U/L); format: organism-based; details: in vivo
MDA-MB-231 [31] = assay: Induction of cell cycle arrest in human MDA-MB-231 cells assessed as accumulation at S phase at 5.21 uM by propidium iodide staining based flow cytometry (reference value: 11.35 +/- 0.07%); format: functional
MDA-MB-231 [32] = assay: Induction of apoptosis in human MDA-MB-231 cells assessed as proportion of necrotic cells at 5.21 uM measured after 24 hrs by Annexin V-FITC/propidium iodide staining based flow cytometry (reference value: 0.2%); format: functional
MCF7 [33] = assay: Antiproliferative activity against human MCF-7 cells assessed as proportion of live cells at 12.5 ug/ml measured after 3 weeks by crystal violet staining based soft agar colony formation assay (reference value: 100%); format: functional; details: dose 12.5 µg/ml
THP-1 = assay: Antiproliferative activity against human THP-1 cells assessed as inhibition of cell growth measured after 48 hrs by SRB assay; format: functional, cell-based; details: THP-1, 48 h
MDA-MB-231 [34] = assay: Induction of apoptosis in human MDA-MB-231 cells assessed as proportion of necrotic cells at 2.6 uM measured after 24 hrs by Annexin V-FITC/propidium iodide staining based flow cytometry (reference value: 0.2%); format: functional

DNA topoisomerase 2-alpha (Homo sapiens), sequence (P11388 whole entry): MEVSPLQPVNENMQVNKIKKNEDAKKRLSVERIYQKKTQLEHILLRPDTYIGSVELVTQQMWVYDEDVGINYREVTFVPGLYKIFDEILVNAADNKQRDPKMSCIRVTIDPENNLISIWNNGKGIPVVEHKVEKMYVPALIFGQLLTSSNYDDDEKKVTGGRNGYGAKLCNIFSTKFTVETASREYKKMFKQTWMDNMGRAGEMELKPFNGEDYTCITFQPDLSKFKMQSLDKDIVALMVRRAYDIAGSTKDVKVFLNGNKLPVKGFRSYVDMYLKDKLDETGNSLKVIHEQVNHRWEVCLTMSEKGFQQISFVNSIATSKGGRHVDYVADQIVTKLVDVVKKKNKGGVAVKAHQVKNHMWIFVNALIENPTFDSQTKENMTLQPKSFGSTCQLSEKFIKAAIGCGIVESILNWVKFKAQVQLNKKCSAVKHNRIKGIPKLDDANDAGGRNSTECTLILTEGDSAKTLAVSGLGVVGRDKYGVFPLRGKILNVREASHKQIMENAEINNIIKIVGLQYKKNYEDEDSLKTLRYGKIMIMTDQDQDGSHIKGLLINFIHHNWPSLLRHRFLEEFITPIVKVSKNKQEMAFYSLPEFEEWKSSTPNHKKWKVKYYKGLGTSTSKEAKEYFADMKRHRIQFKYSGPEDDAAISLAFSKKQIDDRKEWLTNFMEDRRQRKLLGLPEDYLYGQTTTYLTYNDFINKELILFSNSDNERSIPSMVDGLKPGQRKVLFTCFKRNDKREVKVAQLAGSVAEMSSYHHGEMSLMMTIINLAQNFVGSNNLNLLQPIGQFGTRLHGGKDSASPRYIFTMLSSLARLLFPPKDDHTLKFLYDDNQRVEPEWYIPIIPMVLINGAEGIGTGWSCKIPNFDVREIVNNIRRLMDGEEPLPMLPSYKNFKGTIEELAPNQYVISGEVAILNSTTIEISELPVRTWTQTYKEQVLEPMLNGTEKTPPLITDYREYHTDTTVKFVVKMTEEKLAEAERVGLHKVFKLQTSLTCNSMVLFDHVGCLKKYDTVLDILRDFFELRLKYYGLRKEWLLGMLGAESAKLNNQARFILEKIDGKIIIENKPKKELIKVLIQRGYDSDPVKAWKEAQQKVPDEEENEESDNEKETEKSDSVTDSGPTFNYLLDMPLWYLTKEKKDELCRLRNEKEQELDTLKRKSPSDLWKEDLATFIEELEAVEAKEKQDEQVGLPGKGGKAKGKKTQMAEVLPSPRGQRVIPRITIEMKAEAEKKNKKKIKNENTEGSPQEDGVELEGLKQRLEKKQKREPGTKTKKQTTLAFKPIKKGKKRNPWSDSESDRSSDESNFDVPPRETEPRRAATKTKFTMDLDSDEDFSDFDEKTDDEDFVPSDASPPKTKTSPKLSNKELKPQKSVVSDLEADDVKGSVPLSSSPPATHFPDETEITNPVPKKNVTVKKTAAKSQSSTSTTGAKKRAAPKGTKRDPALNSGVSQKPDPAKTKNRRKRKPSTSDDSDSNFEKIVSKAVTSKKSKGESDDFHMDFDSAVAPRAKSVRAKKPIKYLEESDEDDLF

Q: With `COc1ccc(C(c2ccccc2OCCN2CCCC2)c2cccc3ccccc23)c(OC)c1OC` (stereo unspecified) as the molecule, how does the Activity (MCF7 [1]) read?
A: 0%

Q: What about the Activity [2] of the same molecule?
A: 13.06 million/mm3

Q: And the inhibition [3]?
A: 25.9%

Q: What about the Activity (MCF7 [4]) of the same molecule?
A: 12.8%

Q: What about the inhibition (MCF7 [5]) of the same molecule?
A: Dose-dependent effect

Q: What about the IC50 (MCF7 [5]; MCF7, 504 h) of the same molecule?
A: 11.2 µg/mL (≈ 22.6 µM)

Q: What about the IC50 (MCF7 [6]) of the same molecule?
A: 4.33 µM

Q: And the Activity (MDA-MB-231 [7])?
A: 6.75%

Q: And the Activity [8]?
A: 1.01 mg/dL

Q: What about the Activity [9] of the same molecule?
A: 0.65 g/dL

Q: What about the Activity [10] of the same molecule?
A: Non-Toxic

Q: What about the IC50 [11] of the same molecule?
A: 5.65 µM

Q: And the Activity [12]?
A: Non-Toxic

Q: What about the Activity (MDA-MB-231 [13]) of the same molecule?
A: 79.1%

Q: And the Activity [14]?
A: 0.66 mg/dL

Q: And the Activity (MDA-MB-231 [15])?
A: 91.4%

Q: What about the Activity (MCF7 [16]) of the same molecule?
A: 70.77%

Q: And the Activity [17]?
A: 2.87 mg/mL

Q: And the Activity (MCF7 [18])?
A: 87.02%

Q: What about the Activity (MDA-MB-231 [19]) of the same molecule?
A: 95.1%

Q: And the Activity [20]?
A: 11.64 million/mm3

Q: And the Activity [21]?
A: 30.58 g

Q: And the Activity (MCF7 [22])?
A: 67.4%

Q: What about the Activity [23] of the same molecule?
A: 2.27 mg/mL

Q: And the Activity (MDA-MB-231 [24])?
A: 56.9%

Q: What about the Activity [25] of the same molecule?
A: Non-Toxic

Q: And the Activity (MCF7 [26])?
A: 10.9%

Q: And the Activity [27]?
A: 19.12 U/L

Q: And the inhibition [28]?
A: 13.7%

Q: And the MTD [29]?
A: ≤ 300 mg/kg

Q: And the Activity [30]?
A: 182.4 U/L

Q: What about the Activity (MDA-MB-231 [31]) of the same molecule?
A: 7.9%

Q: What about the Activity (MDA-MB-231 [32]) of the same molecule?
A: 1.7%

Q: What about the Activity (MCF7 [33]) of the same molecule?
A: 47.2%

Q: What about the IC50 (THP-1) of the same molecule?
A: 12.6 µM

Q: What about the Activity (MDA-MB-231 [34]) of the same molecule?
A: 2.1%
